Values quoted from earlier work as cited in patent US11458160B2, “Food supplements for use in the prophylaxis and treatment of migraine” (CRISTALFARMA S.R.L., priority 2017, dated 2022).

What was measured:
[1] = magnesium sulphate intravenously, same amount
[2] = weeks 9-12; 600 mg magnesium per day orally for 12 weeks; 81 patients; p<0.05

Structure (SMILES) | efficacy compared with intravenous ketorolac [1] | reduction of attack frequency compared to the baseline [2]
O=S(=O)([O-])[O-].[Mg+2] [magnesium sulphate] | as effective as an intravenously administered NSAID such as ketorolac | –
O=C([O-])CC(O)(CC(=O)[O-])C(=O)[O-].O=C([O-])CC(O)(CC(=O)[O-])C(=O)[O-].[Mg+2].[Mg+2].[Mg+2] [magnesium, tri-magnesium di-citrate] | – | 41.6%
